In US7094909B2, “HIV protease inhibitors, compositions containing the same, their pharmaceutical uses and materials for their synthesis” (priority 2001, dated 2006):
“And” between values parts separate entries of the source, which are not always exact repeats. Equal values may be shown once. Read-outs that look alike come from different tables or passages of the source.

Key:
[1] = test system: HIV-1 NL4-3 or HIV-1 NL4-3(I84V/L90M); assay: Susceptibility assay, p24 ELISA in infected MT-2 cells; assay type: cell-based; details: Human immunodeficiency virus 1, NL43, MT2, read-out: EC50 or IC50 (mM), values without asterisk (EC50)
Method: T-cell lines, CEM-SS, and MT-2, and viruses HIV-1 RF and HIV-1 NL4-3 (pNL4-3) were obtained from the National Institutes of Health (AIDS Research and Reference Reagent Program, Bethesda, Md.).
Compounds were tested in phenotypic susceptibility assays at Virologic, Inc., (See Petropoulos C. J., Parkin N. T., Limoli K. L., Lie Y. S., Wrin T., Huang W., Tian H., Smith D., Winslow G. A., Capon D J, Whitcomb J M. 2000, “A novel phenotypic drug susceptibility assay for human immunodeficiency virus type 1,” Antimicrob Agents Chemother 44(4):920–928) or using the assay described here. MT-2 cells were infected with either HIV-1 NL4-3 or HIV-1 NL4-3([…]) and incubated in the presence of serial 0.5 log dilutions of test compounds. Three days later, culture supernatants were collected and virus production, as determined by p24 ELISA, was assayed. Percent inhibition was calculated as p24 concentration in compound-treated samples as compared to infected, compound-free controls. Inhibition of viral replication is determined by measuring reduction in HIV p24 present in the culture supernatant, using a Beckman-Coulter p24HIV-1 Ag EIA kit and following the supplied protocol. Absorbance is read on a MRX microplate reader (Dynex Technologies). The EC50 was calculated as the concentration of compound that effected a decrease in the p24 production by infected, compound-treated cells to 50% of that produced by infected, compound-free cells.

[2] = molecular target: T1, HIV-1 protease (Q7S mutant form) (Human immunodeficiency virus type 1 group M subtype B, UniProt P04585, Q495S); assay: HIV-1 Protease RET assay; assay type: biochemical
T1 construct: made in house
Procedure, shortened: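 Ki values fitted with the Morrison tight-binding equation from steady-state RET cleavage (ex 340, em 490 nm) of 5 μM RE(EDANS)SQNYPIVQK(DABCYL)R. Buffer pH 4.8 acetate, 1M NaCl, 5 mM DTT, 1 mg/ml BSA, 10% DMSO; 2 nM Q7S mutant dimer, 37 °C, 12 min.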

[3] = test system: HIV-1 (HIV-1 RF, HIV-1 NL4-3) in CEM-SS / MT-2 cells; assay: Cytopathic effect (CPE) inhibition assay (XTT/MTT dye reduction); assay type: cell-based
Procedure, shortened: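 Readout is XTT reduction (A450, 4 h) after six days of culturing virus-infected (moi 0.025–0.819) or mock-infected CEM-SS/MT-2 cells, 2×10^4 per well, with half-log compound series. Antiviral EC50 and cytotoxic CC50 are relative to uninfected compound-free cells. Therapeutic index is CC50 divided by EC50.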

[4] = Ave. Ki (nM), RET assay, Q7S enzyme, Morrison tight binding fit
[5] = Human immunodeficiency virus 1, NL43, read-out: Ave CPE EC50

Cc1c(O)cccc1C(=O)N[C@@H](Cc1ccccc1)[C@H](O)C(=O)N1CSC(C)(C)[C@H]1C(=O)N[C@H]1CCCc2occc21 (stereo in doubt) [Example A48, 3-[2-Hydroxy-3-(3-hydroxy-2-methyl-benzoylamino)-4-phenyl-butyryl]-5,5-dimethyl-thiazolidine-4-carboxylic acid (4,5,6,7-tetrahydro-benzofuran-4-yl)-amide]
EC50 [1]: 92 nM | Ki [2, 4]: < 0.1 nM | EC50 [3, 5]: 37 nM

Cc1c(O)cccc1C(=O)N[C@@H](Cc1ccccc1)[C@H](O)C(=O)N1CSC2(CCCC2)C1C(=O)N[C@@H]1C=CCCC1 (stereo in doubt) [Example C35, (S)-3-((2S,3S)-2-Hydroxy-3-{[1-(3-hydroxy-2-methyl-phenyl)-methanoyl]-amino}-4-phenyl-butanoyl)-1-thia-3-aza-spiro[4.4]nonane-4-carboxylic acid (S)-cyclohex-2-enylamide]
EC50 [1]: 289 nM | Ki [2, 4]: < 0.1 nM | EC50 [3, 5]: 3 nM

Cc1ccccc1CNC(=O)[C@@H]1CC(F)(F)CN1C(=O)[C@@H](O)[C@H](Cc1ccccc1)NC(=O)COc1c(C)cccc1C (stereo in doubt) [Example C40, 1-{3-[2-(2,6-Dimethyl-phenoxy)-acetylamino]-2-hydroxy-4-phenyl-butyryl}-4,4-difluoro-pyrrolidine-2-carboxylic acid 2-methyl-benzylamide]
EC50 [1]: 1800 nM | Ki [2, 4]: 1.8 nM and 0.82 nM

Cc1c(O)cccc1C(=O)N[C@@H](Cc1ccccc1)[C@H](O)C(=O)N1CSC(C)(C)[C@H]1C(=O)NCc1ccc2c(c1)CCO2 [Example A9, (R)-3-((2S,3S)-2-Hydroxy-3-{[1-(3-hydroxy-2-methyl-phenyl)-methanoyl]-amino}-4-phenyl-butanoyl)-5,5-dimethyl-thiazolidine-4-carboxylic acid (2,3-dihydro-benzofuran-5-ylmethyl)-amide]
EC50 [1]: 1080 nM | Ki [2, 4]: 0.49 nM | EC50 [3, 5]: 138 nM

Cc1ccncc1CNC(=O)[C@H]1N(C(=O)[C@@H](O)[C@H](Cc2ccccc2)NC(=O)c2cccc(O)c2C)CSC1(C)C [Example A22, 3-(2-Hydroxy-3-{[1-(3-hydroxy-2-methyl-phenyl)-methanoyl]-amino}-4-phenyl-butanoyl)-5,5-dimethyl-thiazolidine-4-carboxylic acid-(4-methyl-pyridin-3-ylmethyl)amide]
EC50 [1]: 318 nM | Ki [2, 4]: < 0.1 nM | EC50 [3, 5]: 138 nM

Cc1c(O)cccc1C(=O)N[C@@H](Cc1ccccc1)[C@H](O)C(=O)N1CSC(C)(C)[C@H]1C(=O)NCC1=CCCC1 [Example A39, (R)-3-((2S,3S)-2-Hydroxy-3-{[1-(3-hydroxy-2-methyl-phenyl)-methanoyl]-amino}-4-phenyl-butanoyl)-5,5-dimethyl-thiazolidine-4-carboxylic acid (cyclopent-1-enylmethyl)-amide]
EC50 [1]: 213 nM | Ki [2, 4]: < 0.1 nM | EC50 [3, 5]: 123 nM

Cc1c(O)cccc1C(=O)N[C@@H](Cc1ccccc1)[C@H](O)C(=O)N1CSC(C)(C)[C@H]1C(=O)NCc1ccsc1 [Example A40, (R)-3-((2S,3S)-2-Hydroxy-3-{[1-(3-hydroxy-2-methyl-phenyl)-methanoyl]-amino}-4-phenyl-butanoyl)-5,5-dimethyl-thiazolidine-4-carboxylic acid (thiophen-3-ylmethyl)-amide]
EC50 [1]: 109 nM | Ki [2, 4]: < 0.1 nM | EC50 [3, 5]: 40 nM

Cc1c(O)cccc1C(=O)N[C@@H](Cc1ccccc1)[C@H](O)C(=O)N1CSC(C)(C)[C@H]1C(=O)NCc1nccs1 [Example A41, (R)-3-((2S,3S)-2-Hydroxy-3-{[1-(3-hydroxy-2-methyl-phenyl)-methanoyl]-amino}-4-phenyl-butanoyl)-5,5-dimethyl-thiazolidine-4-carboxylic acid (thiazol-2-ylmethyl)-amide]
EC50 [1]: 242 nM | Ki [2, 4]: 0.17 nM | EC50 [3, 5]: 145 nM

Cc1c(O)cccc1C(=O)N[C@@H](Cc1ccccc1)[C@H](O)C(=O)N1CSC(C)(C)[C@H]1C(=O)N[C@H]1CCCc2ncccc21 [Example A42, 3-[2-Hydroxy-3-(3-hydroxy-2-methyl-benzoylamino)-4-phenyl-butyryl]-5,5-dimethyl-thiazolidine-4-carboxylic acid (5,6,7,8-tetrahydro-quinolin-5-yl)-amide]
EC50 [1]: 98 nM | Ki [2, 4]: < 0.1 nM | EC50 [3, 5]: 65 nM

Cc1c(O)cccc1C(=O)N[C@@H](Cc1ccccc1)[C@H](O)C(=O)N1CSC(C)(C)[C@H]1C(=O)NCc1ccoc1 [Example A45, (R)-3-((2S,3S)-2-Hydroxy-3-{[1-(3-hydroxy-2-methyl-phenyl)-methanoyl]-amino}-4-phenyl-butanoyl)-5,5-dimethyl-thiazolidine-4-carboxylic acid (furan-3-ylmethyl)-amide]
EC50 [1]: 48 nM | Ki [2, 4]: < 0.1 nM | EC50 [3, 5]: 34 nM

Cc1c(O)cccc1C(=O)N[C@@H](Cc1ccccc1)[C@H](O)C(=O)N1CSC(C)(C)[C@H]1C(=O)N[C@H]1CCCc2sccc21 [Example A50, 3-[2-Hydroxy-3-(3-hydroxy-2-methyl-benzoylamino)-4-phenyl-butyryl]-5,5-dimethyl-thiazolidine-4-carboxylic acid (4,5,6,7-tetrahydro-benzo[b]thiophen-4-yl)-amide]
EC50 [1]: 125 nM | Ki [2, 4]: < 0.1 nM | EC50 [3, 5]: 24 nM

Cc1c(O)cccc1C(=O)N[C@@H](Cc1ccccc1)[C@H](O)C(=O)N1CSC(C)(C)[C@H]1C(=O)N[C@H]1CCc2ncccc21 [Example A51, 3-[2-Hydroxy-3-(3-hydroxy-2-methyl-benzoylamino)-4-phenyl-butyryl]-5,5-dimethyl-thiazolidine-4-carboxylic acid (6,7-dihydro-5H-[1]pyrindin-5-yl)-amide]
EC50 [1]: 50 nM | Ki [2, 4]: < 0.1 nM | EC50 [3, 5]: 159 nM

Cc1occc1CNC(=O)[C@H]1N(C(=O)[C@@H](O)[C@H](Cc2ccccc2)NC(=O)c2cccc(O)c2C)CSC1(C)C [Example A53, (R)-3-((2S,3S)-2-Hydroxy-3-{[1-(3-hydroxy-2-methyl-phenyl)-methanoyl]-amino}-4-phenyl-butanoyl)-5,5-dimethyl-thiazolidine-4-carboxylic acid (2-methyl-furan-3-ylmethyl)-amide]
EC50 [1]: 70 nM | Ki [2, 4]: < 0.1 nM | EC50 [3, 5]: 28 nM

Cc1c(O)cccc1C(=O)N[C@@H](Cc1ccccc1)[C@H](O)C(=O)N1CSC(C)(C)[C@H]1C(=O)N[C@H]1CCOc2c(F)cc(F)cc21 [Example A55, (R)-3-((2S,3S)-2-Hydroxy-3-{[1-(3-hydroxy-2-methyl-phenyl)-methanoyl]-amino}-4-phenyl-butanoyl)-5,5-dimethyl-thiazolidine-4-carboxylic acid ((S)-6,8-difluoro-chroman-4-yl)-amide]
EC50 [1]: 798 nM | Ki [2, 4]: 0.21 nM | EC50 [3, 5]: 54 nM

Cc1c(O)cccc1C(=O)N[C@@H](Cc1ccccc1)[C@H](O)C(=O)N1CSC(C)(C)[C@H]1C(=O)N[C@H]1CCc2cc(F)ccc21 [Example A56, (R)-3-((2S,3S)-2-Hydroxy-3-{[1-(3-hydroxy-2-methyl-phenyl)-methanoyl]-amino}-4-phenyl-butanoyl)-5,5-dimethyl-thiazolidine-4-carboxylic acid ((S)-5-fluoro-indan-1-yl)-amide]
EC50 [1]: 378 nM | Ki [2, 4]: 0.27 nM | EC50 [3, 5]: 42 nM

C=CCOC(=O)N[C@@H](Cc1ccccc1)[C@H](O)C(=O)N1CSC(C)(C)[C@H]1C(=O)NCc1ccccc1C [Example B11, {(1S,2S)-1-Benzyl-3-[(R)-5,5-dimethyl-4-(2-methyl-benzylcarbamoyl)-thiazolidin-3-yl]-2-hydroxy-3-oxo-propyl}-carbamic acid allyl ester]
EC50 [1]: 2020 nM | Ki [2, 4]: 0.86 nM | EC50 [3, 5]: 567 nM

Cc1cc(O)c(C)c(C(=O)N[C@@H](Cc2ccccc2)[C@H](O)C(=O)N2CC(F)(F)C(C)(C)[C@H]2C(=O)NCC(C)C)c1 [Example D5, (S)-4,4-Difluoro-1-[(2S,3S)-2-hydroxy-3-(3-hydroxy-2,5-dimethyl-benzoylamino)-4-phenyl-butyryl]-3,3-dimethyl-pyrrolidine-2-carboxylic acid isobutyl-amide]
Ki [2, 4]: < 0.1 nM | EC50 [3, 5]: 11 nM

Cc1ccccc1CNC(=O)C1N(C(=O)[C@@H](O)[C@H](CSc2ccccc2)NC(=O)c2cccc(O)c2C)CSC1(C)C (some centres unmarked) [drawing 934]
Ki ([2]; Ki, unit inferred): ≤ 0.1 nM | EC50 ([3]; unit inferred, read-out: EC50): 27 nM

Cc1ccccc1CNC(=O)C1N(C(=O)[C@@H](O)[C@H](CSc2ccccc2)NC(=O)c2cccc(O)c2C)CSC1(C)C (some centres unmarked) [drawing 969]
Ki ([2]; Ki, unit inferred): 0.25 nM | EC50 ([3]; unit inferred, read-out: EC50): 879 nM
